Test results: patent US20070128217A1 (priority 2003, published 2007)

Key:
[1] = test system: antibodies in sera from SARS patients (sera 1a, 1b, 2, 6, 37, 62, London, SARS-yellow, SARS-green); format: binding, human; parameters: Binding of serum 6 to linear peptides of protein X1 of SARS-CoV Urbani / Binding of serum 37 to linear peptides of protein X1 of SARS-CoV Urbani / Binding of serum 6 to looped/cyclic peptide (PEPSCAN-ELISA) / Binding of serum 37 to looped/cyclic peptide (PEPSCAN-ELISA) / Binding of serum 37 to looped/cyclic peptides of protein X1 of SARS-CoV Urbani / Binding of serum 6 to linear peptides of protein X2 / Binding of serum 37 to linear peptides of protein X2 / Binding of serum 37 to looped/cyclic peptides of protein X2 of SARS-CoV Urbani / Binding of serum 6 to linear peptides of protein M of SARS-CoV Urbani / Binding of serum 37 to linear peptides of protein M of SARS-CoV Urbani / Binding of serum 6 to looped/cyclic peptides of protein M of SARS-CoV Urbani / Binding of serum 37 to looped/cyclic peptides of protein M of SARS-CoV Urbani / Binding of serum 6 to linear peptides of protein X3 of SARS-CoV Urbani / Binding of serum 37 to linear peptides of protein X3 of SARS-CoV Urbani / Binding of serum 37 to looped/cyclic peptides of protein X3 of SARS-CoV Urbani / Binding of serum 6 to linear peptides of protein X4 of SARS-CoV Urbani / Binding of serum 37 to linear peptides of protein X4 of SARS-CoV Urbani / Binding of serum 37 to looped/cyclic peptides of protein X4 of SARS-CoV Urbani / Binding of serum 6 to linear peptides of protein X5 of SARS-CoV Urbani / Binding of serum 37 to linear peptides of protein X5 of SARS-CoV Urbani / Binding of serum 37 to looped/cyclic peptides of protein X5 of SARS-CoV Urbani / Binding of serum 6 to linear peptides of protein N of SARS-CoV Urbani / Binding of serum 37 to linear peptides of protein N of SARS-CoV Urbani / Binding of serum 6 to linear peptide (PEPSCAN-ELISA) / Binding of serum 1a to looped/cyclic peptides of protein N of SARS-CoV Urbani / Binding of serum 1b to looped/cyclic peptides of protein N of SARS-CoV Urbani / Binding of serum 2 to looped/cyclic peptides of protein N of SARS-CoV Urbani / Binding of serum 6 to looped/cyclic peptides of protein N of SARS-CoV Urbani / Binding of serum 37 to looped/cyclic peptides of protein N of SARS-CoV Urbani / Binding of serum 62 to looped/cyclic peptides of protein N of SARS-CoV Urbani / Binding of serum London to looped/cyclic peptides of protein N of SARS-CoV Urbani / Binding of serum SARS-green to looped/cyclic peptides of protein N of SARS-CoV Urbani: unit not given here
[2] = test system: control sera (pooled serum of ten healthy LUMC hospital workers; commercial negative donor pooled serum from the Dutch bloodbank); format: binding, human
[3] = test system: rabbit serum obtained by immunizing a rabbit with the SARS-CoV strain Frankfurt 1; format: binding; parameters: Binding of a rabbit serum to linear peptides / Binding of a rabbit serum to looped peptides / Rabbit serum linear peptides / Rabbit serum looped peptides / Binding of a rabbit serum to linear peptides of protein N of SARS-CoV Urbani (Rabbit serum linear peptides) / Binding of a rabbit serum to looped/cyclic peptides of protein N of SARS-CoV Urbani (Rabbit serum looped peptides): unit not given here
[4] = test system: recombinant human anti-SARS-CoV antibody 03-018; format: binding; parameters: Binding of antibody 03-018 to linear peptides of the N protein of SARS-CoV Urbani / Binding of antibody 03-018 to looped/cyclic peptides of the N protein of SARS-CoV Urbani: unit not given here

Sequence | Binding of serum 1a to linear peptides of protein N of SARS-CoV Urbani [1] | Binding of serum 1a to looped/cyclic peptides of protein N of SARS-CoV Urbani [1] | Binding of serum 1b to linear peptides of protein N of SARS-CoV Urbani [1] | Binding of serum 1b to looped/cyclic peptides of protein N of SARS-CoV Urbani [1] | Binding of serum 2 to linear peptides of protein N of SARS-CoV Urbani [1] | Binding of serum 2 to looped/cyclic peptides of protein N of SARS-CoV Urbani [1] | Binding of serum 6 to linear peptides of protein N of SARS-CoV Urbani [1] | Binding of serum 6 to looped/cyclic peptides of protein N of SARS-CoV Urbani [1] | Binding of serum 37 to linear peptides of protein N of SARS-CoV Urbani [1] | Binding of serum 37 to looped/cyclic peptides of protein N of SARS-CoV Urbani [1] | Binding of serum 62 to linear peptides of protein N of SARS-CoV Urbani [1] | Binding of serum 62 to looped/cyclic peptides of protein N of SARS-CoV Urbani [1] | Binding of serum London to linear peptides of protein N of SARS-CoV Urbani [1] | Binding of serum London to looped/cyclic peptides of protein N of SARS-CoV Urbani [1] | Binding of serum SARS-green to linear peptides of protein N of SARS-CoV Urbani [1] | Binding of serum SARS-green to looped/cyclic peptides of protein N of SARS-CoV Urbani [1] | Binding of serum SARS-yellow to linear peptides of protein N of SARS-CoV Urbani [1] | Binding of serum SARS-yellow to looped/cyclic peptides of protein N of SARS-CoV Urbani [1] | Control Serum Blood-Bank Looped peptides [2] | Control serum Blood-bank linear peptides [2] | other results
KHIDAYKTFPPTEPK | 0.3 | 0.2 | 0.1 | 0.1 | 0.3 | 0.2 | 0.2 | 0.1 | 0.7 | 0.4 | 0.8 | 0.3 | 0.5 | 0.3 | 0.5 | 0.1 | 0.8 | 0.1 | 0.3 | 0.8 | Control serum LUMC linear peptides [2]: 0.7; Control serum LUMC looped peptides [2]: 0.3; Binding of a rabbit serum to linear peptides of protein N of SARS-CoV Urbani (Rabbit serum linear peptides) [3]: 0.1; Binding of a rabbit serum to looped/cyclic peptides of protein N of SARS-CoV Urbani (Rabbit serum looped peptides) [3]: 0.2; Binding of antibody 03-018 to linear peptides of the N protein of SARS-CoV Urbani [4]: 0.1; Binding of antibody 03-018 to looped/cyclic peptides of the N protein of SARS-CoV Urbani [4]: 0.2
KKKKTDEAQPLPQRQ | 0.3 | 0.2 | 0.1 | 0.1 | 0.3 | 0.3 | 0.3 | 0.1 | 0.7 | 0.4 | 0.7 | 0.3 | 0.8 | 0.3 | 0.6 | 0.1 | 0.9 | 0.2 | 0.6 | 1.0 | Control serum LUMC linear peptides [2]: 0.9; Control serum LUMC looped peptides [2]: 0.4; Binding of a rabbit serum to linear peptides of protein N of SARS-CoV Urbani (Rabbit serum linear peptides) [3]: 0.2; Binding of a rabbit serum to looped/cyclic peptides of protein N of SARS-CoV Urbani (Rabbit serum looped peptides) [3]: 0.1; Binding of antibody 03-018 to linear peptides of the N protein of SARS-CoV Urbani [4]: 0.1; Binding of antibody 03-018 to looped/cyclic peptides of the N protein of SARS-CoV Urbani [4]: 0.2
